{"source": "paper PMC11046306", "about": "“METTL17 is an Fe-S cluster checkpoint for mitochondrial translation” (Molecular cell, 2024)", "target": "T1, mS29 (Saccharomyces cerevisiae, UniProt Q01163)", "T1 construct": "gene RSM23; native subunit within the mitoribosomal small subunit purified from yeast mitochondria", "experiment": "cryo-EM structure of the SSU […] Å", "type": "binding", "settings": "within the mitoribosomal SSU; nucleotide pocket; reassigned from GDP"}
{"smiles": "Nc1ncnc2c1ncn2[C@@H]1O[C@H](COP(=O)(O)OP(=O)(O)OP(=O)(O)O)[C@@H](O)[C@H]1O", "note": "[adenosine triphosphate]", "values": [{"measurement": "cryo-EM structure of the SSU 2.3 Å", "value": "guanosine diphosphate (GDP) to adenosine triphosphate (ATP) in the nucleotide pocket of the protein mS29"}]}
